Each structure is given as a SMILES string. A value given as a limit tells only on which side of the number the result lay.

One test in a line: 3H-Thymidine Incorporation Assay (24 hr drug, wash, another 48 hr; 72 hr assay). As to conditions: CCRF-CEM, read-out: IC50 in μM (3H-TdR incorporation at 72 hr) CEM/dCK- 24 h, CEM/dCK- (CCRF-CEM deoxycytidine kinase-deficient); 24 h exposure to drug, wash, another 48 hr. The format is cell-based. (In general: Dividing cells build labelled thymidine or BrdU into new DNA.)
On to `COc1cc2c(cc1OC)C(=O)/C(=C/c1cc(C)c(OC(=O)OC[C@H]3OC[C@@H](n4ccc(N)nc4=O)O3)c(C)c1)C2` [Compound 112, CARBONIC ACID 4(S)-(4′-A- MINO-2′-OXO-2H-PYRI- MIDIN-1′-YL)-[1,3]DI- OXOLAN-2(S)-YL- METHYL ESTER 4-(5″,6″-DI- METHOXY-1″-OXO-IN- DAN-2″-YLIDENE- METHYL)-2,6-DI- METHYL-PHENYL ESTER], for which the IC50 turned out to be 0.057 µM.

Still in this test, the particulars now being: ratio of IC50 CEM/dCK- to IC50 CCRF-CEM, 24 h exposure.
As for `O=C(NCc1ccccc1)Nc1ccn([C@@H]2CO[C@H](COC(=O)NCc3ccccc3)O2)c(=O)n1` [Compound 109, BENZYL-CARBAMIC ACID 4-[4-(3-BEN- ZYL-UREIDO)-2-OX- O-2#H!-PYRIMIDIN-1-YL]-[1,3]DI- OXOLAN-2-YLMETHYL ESTER], the “Factor (Resistance Factor = Ratio of dCK- on Wild-type CCRF-CEM)” value was above 100. For `Nc1ccn([C@@H]2CO[C@H](COC(=O)C34CC5CC(CC(C5)C3)C4)O2)c(=O)n1` [Compound 110, ADAMANTANE-1-CARBOXYLIC ACID 4-(4-AMINO-2-OXO-2H-PYRI- MIDIN-1-YL)-[1,3]DI- OXOLAN-2-YLMETHYL ESTER], the “Factor (Resistance Factor = Ratio of dCK- on Wild-type CCRF-CEM)” value is 3 307.

Regarding `CC(C)(C)OC(=O)N(CCCCC(=O)OC[C@H]1OC[C@@H](n2ccc(N)nc2=O)O1)Cc1ccccc1` [Compound 111, 5-(BENZYL-TERT-BUTOXY- CARBONYL-AMINO)-PENTANOIC ACID 4-(4-A- MINO-2-OXO-2H-PYRI- MIDIN-1-YL)-[1,3]DI- OXOLAN-2-YLMETHYL ESTER], the “Factor (Resistance Factor = Ratio of dCK- on Wild-type CCRF-CEM)” value is recorded as 13000.

Consider `COc1cc2c(cc1OC)C(=O)/C(=C/c1cc(C)c(OC(=O)OC[C@H]3OC[C@@H](n4ccc(N)nc4=O)O3)c(C)c1)C2` [Compound 112, CARBONIC ACID 4(S)-(4′-A- MINO-2′-OXO-2H-PYRI- MIDIN-1′-YL)-[1,3]DI- OXOLAN-2(S)-YL- METHYL ESTER 4-(5″,6″-DI- METHOXY-1″-OXO-IN- DAN-2″-YLIDENE- METHYL)-2,6-DI- METHYL-PHENYL ESTER], for which the “Factor (Resistance Factor = Ratio of dCK- on Wild-type CCRF-CEM)” value is 10. As for `COC1(OC[C@H]2OC[C@@H](n3ccc(N)nc3=O)O2)CCCCC1` [Compound 113, 4-AMINO-1-([2-(1-METH- OXY-CYCLO- HEXYLOXYMETHYL)-[1,3]DI- OXOLAN-4-YL]-1H-PYRI- MIDIN-2-ONE], the “Factor (Resistance Factor = Ratio of dCK- on Wild-type CCRF-CEM)” value is recorded as >1 667. Still for that read-out and setting: the figure for `CC(C)(C)OC(=O)N(CCCCC(=O)Nc1ccn([C@@H]2CO[C@H](COC(=O)CCCCN(Cc3ccccc3)C(=O)OC(C)(C)C)O2)c(=O)n1)Cc1ccccc1` [Compound 114, 5-(BENZYL-TERT-BUTOXY- CARBONYL-AMINO)-PENTANOIC ACID 4-{4-[5-(BENZYL-TERT-BUTOXY- CARBONYL-AMINO)-PENTANOYL- AMINO]-2-OXO-2H!PYRI- MIDIN-1-YL)-[1,3]DI- OXOLAN-2-YLMETHYL ESTER] is 500; for `CC(C)(C)OC(=O)N(CCCCC(=O)Nc1ccn([C@@H]2CO[C@H](CO)O2)c(=O)n1)Cc1ccccc1` [Compound 115, BENZYL-{4-[1-(2-HYDROXY- METHYL-[1,3]DI- OXOLAN-4-YL)-2-OX- O-1,2-DIHYDRO-PYRI- MIDIN-4-YLCARBA- MOYL]-BUTYL}-CARBAMIC ACID TERT!-BUTYL ESTER] it is above 500. As to `COc1ccc(OC(=O)OC[C@H]2OC[C@@H](n3ccc(N)nc3=O)O2)cc1` [Compound 118, CARBONIC ACID 4-(4-A- MINO-2-OXO-2H-PYRI- MIDIN-1-YL)-[1,3]DI- OXOLAN-2-YLMETHYL ESTER 4-METHOXY-PHENYL ESTER], the “Factor (Resistance Factor = Ratio of dCK- on Wild-type CCRF-CEM)” value was >3 571.

Consider `CCCCCCNC(=O)Nc1ccn([C@@H]2CO[C@H](COC(=O)NCCCCCC)O2)c(=O)n1` [Compound 119, HEXYL-CARBAMIC ACID 4-[4-(3-HEX- YL-UREIDO)-2-OX- O-2#H!-PYRIMIDIN-1-YL]-[1,3]DI- OXOLAN-2-YLMETHYL ESTER], for which the “Factor (Resistance Factor = Ratio of dCK- on Wild-type CCRF-CEM)” value is “˜2”. Still for that read-out and setting: then `CCCCCCNC(=O)Nc1ccn([C@@H]2CO[C@H](CO)O2)c(=O)n1` [Compound 120, 1-HEXYL-3-[1-(2-HY- DROXYMETHYL-[1,3]DI- OXOLAN-4-YL)-2-OX- O-1,2-DIHYDRO-PYRI- MIDIN-4-YL]-UREA], with 1.

Regarding `CCCCCCNC(=O)OC[C@H]1OC[C@@H](n2ccc(N)nc2=O)O1` [Compound 121, HEXYL-CARBAMIC ACID 4-(4-A- MINO-2-OXO-2H-PYRI- MIDIN-1-YL)-[1,3]DI- OXOLAN-2-YLMETHYL ESTER], the “Factor (Resistance Factor = Ratio of dCK- on Wild-type CCRF-CEM)” value is recorded as above 6. Same read-out and setting: then `CCCCCCOC(=O)OC[C@H]1OC[C@@H](n2ccc(NC(=O)OCc3ccccc3)nc2=O)O1` [Compound 122, CARBONIC ACID 4-(4-BENZYLOXY- CARBONYLAMINO-2-OX- O-2H-PYRIMIDIN-1-YL)-[1,3]DI- OXOLAN-2-YLMETHYL ESTER HEXYL ESTER], with 86; and `COc1ccc(C(OC[C@H]2OC[C@@H](n3ccc(N)nc3=O)O2)(c2ccccc2)c2ccc(OC)cc2)cc1` [Compound 123, 4-AMINO-1-{2-[BIS-(4-METH- OXY-PHENYL)-PHENYL-METH- OXYMETHYL]-[1,3]DI- OXOLAN-4-YL)-1H-PYRI- MIDIN-2-ONE], with 17.

For `CC(C)c1ccc(NC(=O)OC[C@H]2OC[C@@H](n3ccc(NC(=O)OCc4ccccc4)nc3=O)O2)cc1` [Compound 124, (1-[2-(4-ISOPROPYL-PHENYL- CARBAMOYLOXYMETHYL)-[1,3]DI- OXOLAN-4-YL]-2-OX- O-1,2-DIHYDRO-PYRI- MIDIN-4-YL}-CARBAMIC ACID BENZYL ESTER], the “Factor (Resistance Factor = Ratio of dCK- on Wild-type CCRF-CEM)” value is “˜2”. Still for that read-out and setting: the figure for `CC(C)(C)OC(=O)N(CCCCC(C)(C)C(=O)Nc1ccn([C@@H]2CO[C@H](CO)O2)c(=O)n1)Cc1ccccc1` [Compound 125, Benzyl-{5-[1-(2-hydroxy-methyl-[1,3]di-oxolan-4-yl)-2-ox-o-1,2-dihydro-pyri-midin-4-ylcarba-moyl]-5-methyl-hexyl}-carbamic acid tert-butyl ester] is 97; for `COc1ccc(C(OC[C@H]2OC[C@@H](n3ccc(N)nc3=O)O2)(c2ccccc2)c2ccccc2)cc1` [Compound 134, 4-AMINO-1-{2-[(4-METH- OXY-PHENYL)-DI- PHENYL-METH- OXYMETHYL]-[1,3]DI- OXOLAN-4-YL}-1H-PYRI- MIDIN-2-ONE] it is 3. The same measure, in the same setting: then `O=c1nc(NC2Sc3ccccc3S2)ccn1[C@@H]1CO[C@H](CO)O1` [Compound 136, 4-(BENZO[1,3]DITHIOL-2-YL- AMINO)-1-(2-HYDROXY- METHYL-[1,3]DI- OXOLAN-4-YL)-1H!PYRI- MIDIN-2-ONE], with above 25. Consider `COC(OC)(OC[C@H]1OC[C@@H](n2ccc(N)nc2=O)O1)c1ccccc1` [Compound 139, 4-AMINO-1-[2-(DI- METHOXY-PHENYL-METH- OXYMETHYL)-[1,3]DI- OXOLAN-4-YL]-1H-PYRI- MIDIN-2-ONE], for which the “Factor (Resistance Factor = Ratio of dCK- on Wild-type CCRF-CEM)” value was above 250.

As to `CN(Cc1ccccc1)C(=O)OC[C@H]1OC[C@@H](n2ccc(N)nc2=O)O1` [Compound 140, BENZYL-METHYL-CARBAMIC ACID 4-(4-AMINO-2-OXO-2H-PYRI- MIDIN-1-YL)-[1,3]DI- OXOLAN-2-YLMETHYL ESTER], the “Factor (Resistance Factor = Ratio of dCK- on Wild-type CCRF-CEM)” value was above 9.

Turning to `O=c1nc(NC2(c3ccccc3)c3ccccc3Oc3ccccc32)ccn1[C@@H]1CO[C@H](COC2(c3ccccc3)c3ccccc3Oc3ccccc32)O1` [Compound 144, 4-(9-PHENYL-9#H!-XAN- THEN-9-YLAMINO)-1-[2-(9-PHE- NYL-9#H!-XAN- THEN-9-YLOXYMETHYL)-[1,3]DI- OXOLAN-4-YL]-1#H!-PYRI- MIDIN-2-ONE], the “Factor (Resistance Factor = Ratio of dCK- on Wild-type CCRF-CEM)” value was 110.

The record behind these values is US20050256034A1, “Dioxolane analogs for improved inter-cellular delivery” (priority 2000, published 2005).
